Reference: patent US7851474B2, “Dipiperazinyl ketones and related analogues” (Neurogen Corporation, priority 2005, dated 2010)

Each molecule was assayed against T1, chimeric human H3 receptor (Homo sapiens, UniProt Q9Y5N1, E19D) (assay: Chimeric human H3 receptor screening GTP binding assay (inhibition of histamine-stimulated GTP-gamma35S binding, Example 8)). Settings: 1 h; "+" in Ki of Table II; assay of Example 8; read-out: percent inhibition of agonist-induced GTP-gammaS binding to H3.
T1 construct: made in house; host or cells: Sf9 insect cells (baculovirus infection); P2 membrane preparation
T1 sequence (Q9Y5N1 with tags, fused parts or gaps E19D): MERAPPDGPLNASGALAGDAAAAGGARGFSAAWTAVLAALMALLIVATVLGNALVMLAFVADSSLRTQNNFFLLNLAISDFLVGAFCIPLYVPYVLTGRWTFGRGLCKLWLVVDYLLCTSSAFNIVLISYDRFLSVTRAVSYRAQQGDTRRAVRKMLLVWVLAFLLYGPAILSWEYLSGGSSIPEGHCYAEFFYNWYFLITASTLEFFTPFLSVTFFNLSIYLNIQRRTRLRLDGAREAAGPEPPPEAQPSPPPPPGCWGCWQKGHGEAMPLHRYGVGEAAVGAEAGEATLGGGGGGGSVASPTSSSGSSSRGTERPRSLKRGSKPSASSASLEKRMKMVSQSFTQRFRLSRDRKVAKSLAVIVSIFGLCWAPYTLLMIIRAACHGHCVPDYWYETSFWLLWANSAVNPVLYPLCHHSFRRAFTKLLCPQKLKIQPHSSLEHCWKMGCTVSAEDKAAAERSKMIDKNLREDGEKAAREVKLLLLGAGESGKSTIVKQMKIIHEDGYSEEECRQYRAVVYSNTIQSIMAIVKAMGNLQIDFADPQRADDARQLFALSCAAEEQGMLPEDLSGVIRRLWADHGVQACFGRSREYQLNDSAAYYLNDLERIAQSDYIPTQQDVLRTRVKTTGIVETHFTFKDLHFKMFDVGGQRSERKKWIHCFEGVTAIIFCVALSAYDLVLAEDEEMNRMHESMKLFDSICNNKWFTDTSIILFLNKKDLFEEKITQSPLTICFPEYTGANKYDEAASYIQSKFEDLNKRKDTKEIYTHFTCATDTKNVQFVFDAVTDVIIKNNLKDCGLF
Type: biochemical
Outline: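 Data are percent inhibition of the 1 μM histamine-stimulated GTP-gamma35S (125 pM) binding, after non-specific binding (10 uM GTP-gammaS) is subtracted. Test compound at 4 μM. Incubation was 60 min at room temperature with Sf9 membranes bearing receptor plus G-protein subunits, buffer pH 7.4 with 10 μM GDP, and filtration read-out.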
`Cc1oc(-c2ccc(Cl)cc2)cc1C(=O)N1CCN(CC(=O)N2CCN(C3CCC3)CC2)CC1` [Compound 470, 1-[5-(4-chlorophenyl)-2-methyl-3-furoyl]-4-[2-(4-cyclobutylpiperazin-1-yl)-2-oxoethyl]piperazine] was tested, and the inhibition at 4 µM was > 90%.
In the case of `COc1cc(/C=C/C(=O)N2CCN(CC(=O)N3CCN(C4CCC4)CC3)CC2)ccc1OCc1ccccc1` [Compound 471, 1-{(2E)-3-[4-(benzyloxy)-3-methoxyphenyl]prop-2-enoyl}-4-[2-(4-cyclobutylpiperazin-1-yl)-2-oxoethyl]piperazine], the inhibition at 4 µM is reported as > 90%.
In the case of `CCCc1c(C(=O)N2CCN(CC(=O)N3CCN(C4CCC4)CC3)CC2)cnn1-c1ccc(Cl)cc1` [Compound 472, 1-{[1-(4-chlorophenyl)-5-propyl-1H-pyrazol-4-yl]carbonyl}-4-[2-(4-cyclobutylpiperazin-1-yl)-2-oxoethyl]piperazine], the inhibition at 4 µM is reported as > 90%.
`O=C(CN1CCN(C(=O)c2cccnc2Oc2ccc(Cl)cc2)CC1)N1CCN(C2CCC2)CC1` [Compound 473, 1-{[2-(4-chlorophenoxy)pyridin-3-yl]carbonyl}-4-[2-(4-cyclobutylpiperazin-1-yl)-2-oxoethyl]piperazine] was tested, and the inhibition at 4 µM was > 90%.
With `CC(C)(C)c1ccc(Oc2ncccc2C(=O)N2CCN(CC(=O)N3CCN(C4CCC4)CC3)CC2)cc1` [Compound 474, 1-{[2-(4-tert-butylphenoxy)pyridin-3-yl]carbonyl}-4-[2-(4-cyclobutylpiperazin-1-yl)-2-oxoethyl]piperazine] the inhibition at 4 µM was > 90%.
For `C=CCSc1ncccc1C(=O)N1CCN(CC(=O)N2CCN(C3CCC3)CC2)CC1` [Compound 475, 1-{[2-(allythio)pyridin-3-yl]carbonyl}-4-[2-(4-cyclobutylpiperazin-1-yl)-2-oxoethyl]piperazine], the inhibition at 4 µM was > 90%.
With `O=C(Cc1ccccc1OCc1ccccc1)N1CCN(CC(=O)N2CCN(C3CCC3)CC2)CC1` [Compound 476, 1-{[2-(benzyloxy)phenyl]acetyl}-4-[2-(4-cyclobutylpiperazin-1-yl)-2-oxoethyl]piperazine] the inhibition at 4 µM was > 90%.
With `CC(CC(=O)N1CCN(CC(=O)N2CCN(C3CCC3)CC2)CC1)Sc1ccc(Cl)cc1` (stereo not drawn) [Compound 482, 1-{3-[(4-chlorophenyl)thio]butanoyl}-4-[2-(4-cyclobutylpiperazin-1-yl)-2-oxoethyl]piperazine] the inhibition at 4 µM was > 90%.
With `CCC(C)N1CCN(C(=O)CN2CCN(C(C)=O)CC2)CC1` (stereo not drawn) [Compound 486, 1-acetyl-4-[2-(4-sec-butylpiperazin-1-yl)-2-oxoethyl]piperazine] the inhibition at 4 µM was > 90%.
`CCCCn1c(C(=O)N2CCN(CC(=O)N3CCN(C4CCC4)CC3)CC2)cc2ccccc21` [Compound 495, 1-butyl-2-({4-[2-(4-cyclobutylpiperazin-1-yl)-2-oxoethyl]piperazin-1-yl}carbonyl)-1H-indole] was tested, and the inhibition at 4 µM was > 90%.
`Cc1cc(C(=O)N2CCN(CC(=O)N3CCN(C4CCC4)CC3)CC2)c(C)n1C` [Compound 497, 1-cyclobutyl-4-({4-[(1,2,5-trimethyl-1H-pyrrol-3-yl)carbonyl]piperazin-1-yl}acetyl)piperazine] was tested, and the inhibition at 4 µM was > 90%.
With `Cc1cc(C(=O)N2CCN(CC(=O)N3CCN(C4CCC4)CC3)CC2)nn1C` [Compound 498, 1-cyclobutyl-4-({4-[(1,5-dimethyl-1H-pyrazol-3-yl)carbonyl]piperazin-1-yl}acetyl)piperazine] the inhibition at 4 µM was > 90%.
With `CCn1nc(C)cc1C(=O)N1CCN(CC(=O)N2CCN(C3CCC3)CC2)CC1` [Compound 499, 1-cyclobutyl-4-({4-[(1-ethyl-3-methyl-1H-pyrazol-5-yl)carbonyl]piperazin-1-yl}acetyl)piperazine] the inhibition at 4 µM was > 90%.
For `O=C(COc1cccc2ccccc12)N1CCN(CC(=O)N2CCN(C3CCC3)CC2)CC1` [Compound 500, 1-cyclobutyl-4-({4-[(1-naphthyloxy)acetyl]piperazin-1-yl}acetyl)piperazine], the inhibition at 4 µM was > 90%.
`COc1cccc(CC(=O)N2CCN(CC(=O)N3CCN(C4CCC4)CC3)CC2)c1OC` [Compound 502, 1-cyclobutyl-4-({4-[(2,3-dimethoxyphenyl)acetyl]piperazin-1-yl}acetyl)piperazine] was tested, and the inhibition at 4 µM was > 90%.
With `Cc1cccc(OCC(=O)N2CCN(CC(=O)N3CCN(C4CCC4)CC3)CC2)c1C` [Compound 503, 1-cyclobutyl-4-({4-[(2,3-dimethylphenoxy)acetyl]piperazin-1-yl}acetyl)piperazine] the inhibition at 4 µM was > 90%.
`O=C(COc1ccc(Cl)cc1Cl)N1CCN(CC(=O)N2CCN(C3CCC3)CC2)CC1` [Compound 504, 1-cyclobutyl-4-({4-[(2,4-dichlorophenoxy)acetyl]piperazin-1-yl}acetyl)piperazine] was tested, and the inhibition at 4 µM was > 90%.
In the case of `O=C(Cc1ccc(Cl)cc1Cl)N1CCN(CC(=O)N2CCN(C3CCC3)CC2)CC1` [Compound 505, 1-cyclobutyl-4-({4-[(2,4-dichlorophenyl)acetyl]piperazin-1-yl]acetyl)piperazine], the inhibition at 4 µM is reported as > 90%.
With `O=C(Cc1ccc(F)cc1F)N1CCN(CC(=O)N2CCN(C3CCC3)CC2)CC1` [Compound 506, 1-cyclobutyl-4-({4-[(2,4-difluorophenyl)acetyl]piperazin-1-yl}acetyl)piperazine] the inhibition at 4 µM was > 90%.
With `Cc1ccc(OCC(=O)N2CCN(CC(=O)N3CCN(C4CCC4)CC3)CC2)c(C)c1` [Compound 508, 1-cyclobutyl-4-({4-[(2,4-dimethylphenoxy)acetyl]piperazin-1-yl}acetyl)piperazine] the inhibition at 4 µM was > 90%.
For `Cc1ccc(C)c(OCC(=O)N2CCN(CC(=O)N3CCN(C4CCC4)CC3)CC2)c1` [Compound 510, 1-cyclobutyl-4-({4-[(2,5-dimethylphenoxy)acetyl]piperazin-1-yl}acetyl)piperazine], the inhibition at 4 µM was > 90%.
In the case of `O=C(Cc1c(F)cccc1F)N1CCN(CC(=O)N2CCN(C3CCC3)CC2)CC1` [Compound 512, 1-cyclobutyl-4-({4-[(2,6-difluorophenyl)acetyl]piperazin-1-yl}acetyl)piperazine], the inhibition at 4 µM is reported as > 90%.
In the case of `COc1ccc(C(=O)N2CCN(CC(=O)N3CCN(C4CCC4)CC3)CC2)c(OC)n1` [Compound 513, 1-cyclobutyl-4-({4-[(2,6-dimethoxypyridin-3-yl)carbonyl]piperazin-1-yl}acetyl)piperazine], the inhibition at 4 µM is reported as > 90%.
`O=C(/C=C/c1cccc2ccccc12)N1CCN(CC(=O)N2CCN(C3CCC3)CC2)CC1` [Compound 514, 1-cyclobutyl-4-({4-[(2E)-3-(1-naphthyl)prop-2-enoyl]piperazin-1-yl}acetyl)piperazine] was tested, and the inhibition at 4 µM was > 90%.
For `COc1ccc(/C=C/C(=O)N2CCN(CC(=O)N3CCN(C4CCC4)CC3)CC2)c(OC)c1OC` [Compound 515, 1-cyclobutyl-4-({4-[(2E)-3-(2,3,4-trimethoxyphenyl)prop-2-enoyl]piperazin-1-yl}acetyl)piperazine], the inhibition at 4 µM was > 90%.
With `O=C(/C=C/c1cccc(F)c1F)N1CCN(CC(=O)N2CCN(C3CCC3)CC2)CC1` [Compound 516, 1-cyclobutyl-4-({4-[(2E)-3-(2,3-difluorophenyl)prop-2-enoyl]piperazin-1-yl}acetyl)piperazine] the inhibition at 4 µM was > 90%.
In the case of `COc1cccc(/C=C/C(=O)N2CCN(CC(=O)N3CCN(C4CCC4)CC3)CC2)c1OC` [Compound 517, 1-cyclobutyl-4-({4-[(2E)-3-(2,3-dimethoxyphenyl)prop-2-enoyl]piperazin-1-yl}acetyl)piperazine], the inhibition at 4 µM is reported as > 90%.
For `COc1cc(OC)c(OC)cc1/C=C/C(=O)N1CCN(CC(=O)N2CCN(C3CCC3)CC2)CC1` [Compound 518, 1-cyclobutyl-4-({4-[(2E)-3-(2,4,5-trimethoxyphenyl)prop-2-enoyl]piperazin-1-yl}acetyl)piperazine], the inhibition at 4 µM was > 90%.
`O=C(/C=C/c1ccc(Cl)cc1Cl)N1CCN(CC(=O)N2CCN(C3CCC3)CC2)CC1` [Compound 519, 1-cyclobutyl-4-({4-[(2E)-3-(2,4-dichlorophenyl)prop-2-enoyl]piperazin-1-yl}acetyl)piperazine] was tested, and the inhibition at 4 µM was > 90%.
`COc1ccc(/C=C/C(=O)N2CCN(CC(=O)N3CCN(C4CCC4)CC3)CC2)c(OC)c1` [Compound 520, 1-cyclobutyl-4-({4-[(2E)-3-(2,4-dimethoxyphenyl)prop-2-enoyl]piperazin-1-yl}acetyl)piperazine] was tested, and the inhibition at 4 µM was > 90%.
In the case of `COc1ccc(OC)c(/C=C/C(=O)N2CCN(CC(=O)N3CCN(C4CCC4)CC3)CC2)c1` [Compound 521, 1-cyclobutyl-4-({4-[(2E)-3-(2,5-dimethoxyphenyl)prop-2-enoyl]piperazin-1-yl}acetyl)piperazine], the inhibition at 4 µM is reported as > 90%.
`O=C(/C=C/c1c(Cl)cccc1Cl)N1CCN(CC(=O)N2CCN(C3CCC3)CC2)CC1` [Compound 522, 1-cyclobutyl-4-({4-[(2E)-3-(2,6-dichlorophenyl)prop-2-enoyl]piperazin-1-yl}acetyl)piperazine] was tested, and the inhibition at 4 µM was > 90%.
In the case of `CCOc1ccccc1/C=C/C(=O)N1CCN(CC(=O)N2CCN(C3CCC3)CC2)CC1` [Compound 523, 1-cyclobutyl-4-({4-[(2E)-3-(2-ethoxyphenyl)prop-2-enoyl]piperazin-1-yl}acetyl)piperazine], the inhibition at 4 µM is reported as > 90%.
In the case of `O=C(C=Cc1ccccc1F)N1CCN(CC(=O)N2CCN(C3CCC3)CC2)CC1` [Compound 524, 1-cyctobutyl-4-({4-[(2E)-3-(2-fluorophenyl)prop-2-enoyl]piperazin-1-yl}acetyl)piperazine], the inhibition at 4 µM is reported as > 90%.
In the case of `COc1ccccc1/C=C/C(=O)N1CCN(CC(=O)N2CCN(C3CCC3)CC2)CC1` [Compound 525, 1-cyclobutyl-4-({4-[(2E)-3-(2-methoxyphenyl)prop-2-enoyl]piperazin-1-yl}acetyl)piperazine], the inhibition at 4 µM is reported as > 90%.
`Cc1ccccc1/C=C/C(=O)N1CCN(CC(=O)N2CCN(C3CCC3)CC2)CC1` [Compound 526, 1-cyclobutyl-4-({4-[(2E)-3-(2-methylphenyl)prop-2-enoyl]piperazin-1-yl}acetyl)piperazine] was tested, and the inhibition at 4 µM was > 90%.
